Test results from US20210196731A1, “COMPOSITIONS AND METHODS FOR TREATING OCULAR INFLAMMATION AND OCULAR SCARRING” (priority 2018, published 2021).

Legend:
Assay type in all cases: cell-based, human
HTCFs = assay: Cytotoxicity assay, in situ fluorescence-based LIVE/DEAD (fluorescein diacetate/propidium iodide)
Experimental: To assess the relative cellular viability between different experimental conditions, an in situ fluorescence-based LIVE/DEAD assay was used. This is a well reported method for estimating the cytotoxicity of an intervention. In brief, two florescent dyes, fluorescein diacetate and propidium iodide, are added to the culture media surrounding the collagen constructs. Fluorescein diacetate is converted into a […] fluorescent molecule by esterases within living cells. Propidium iodide (red) cannot pass through a viable cell's membrane, however it can penetrate disordered areas of dead cell membranes and then intercalates with the nuclear DNA. After a 5 min incubation with the staining solution, collagen constructs were washed with PBS and immediately imaged on a laser-scanning confocal microscope (A1R HD Nikon Instruments Inc., Tokyo, Japan). Ten random frames were taken with the 20× objective per tissue section, with three tissue sections imaged per patient cell line and treatment group. The laser intensity settings were kept consistent between samples to facilitate consistent comparison between replicates.
Using ImageJ, blue signals were counted within every frame and counted as living cells. The same was done for red signals, and these were counted as dead cells. The ratio of living (blue) to total (blue+red) cells was recorded.

αSMA = assay: Western blot of HTCF protein lysate, αSMA
Experimental: (§1) Cells were lysed in lysis buffer (PhosphoSafe Extraction Reagent, Novagen) containing a protease inhibitor cocktail (P2714, Sigma-Aldrich). Crude protein lysate was quantified using a Pierce BCA protein assay kit (ThermoFisher, Mississauga, ON) and 10 ug from each sample was resolved using a Novex WedgeWell 4-20% tris-glycine gel (Invitrogen). Using an iBlot Gel Transfer Device (IB1001, Invitrogen), the separated protein was transferred to a nitrocellulose membrane (1B301001, iBlot Transfer Stack, Invitrogen) which was then blocked with 5% (w/v) bovine serum albumin (Sigma-Aldrich) in Tris buffered saline (TBST) for 1 hour at room temperature. The membranes were incubated overnight at 4° C. with primary antibody diluted in TBST containing 5% BSA (w/vol). […] Visualization was accomplished by applying WesternBright Quantum chemiluminescent reagent (Advansta, Inc.), with GAPDH used as a protein loading control. Imaging and relative densiometric quantification was accomplished using a ChemiDoc MP System (Bio-Rad Laboratories, Inc.) connected to Image Lab (Version 6, Bio-Rad Laboratories, Inc.).

collagen 1 = assay: Western blot of HTCF protein lysate, collagen 1; settings: ASA 500 or 1000 μg/ml, APHS 12 μg/ml, with or without gentamicin 250 or 500 μg/ml, 48 hrs
Experimental: as §1

pSMAD2/3 = assay: Western blot of HTCF protein lysate, pSMAD2/3; settings: ASA 500 or 1000 μg/ml, APHS 12 μg/ml, 48 hrs; for ratio of pSMAD2/3 to tSMAD2/3 (proportion of active to total SMAD2/3): AHGFs; for AHGF-induced levels of pSMAD2/3: with or without gentamicin 250 or 500 μg/ml
Experimental: as §1

SMAD2/3 = assay: Western blot of HTCF protein lysate, SMAD2/3; settings: ASA 500 or 1000 μg/ml, APHS 12 μg/ml, 48 hrs
Experimental: as §1

[1] = ASA 500 or 1000 μg/ml, APHS 12 μg/ml, with or without gentamicin 250 or 500 μg/ml, 48 hrs (FIG. 17B)

## CCCCC#CCSc1ccccc1OC(C)=O [APHS, o-(acetoxyphenyl)hept-2-ynyl sulfide]
HTCFs; AHGFs, APHS 24 μg/ml, alone or with gentamicin 750 μg/ml
  relative proportion of living to total cells: unchanged relative to the AHGFs control group
αSMA; [1]
  AHGF-induced expression of αSMA: significantly reduced
Collagen 1
  AHGF-induced expression of collagen 1: significantly reduced
pSMAD2/3
  ratio of pSMAD2/3 to tSMAD2/3 (proportion of active to total SMAD2/3): significantly reduce the proportion of active to total SMAD2/3 from AHGF-induced levels
  AHGF-induced levels of pSMAD2/3: significantly reduced
SMAD2/3
  AHGF-induced expression of SMAD2/3: significantly reduced

## CC(=O)Oc1ccccc1C(=O)O [ASA, acetylsalicylic acid]
HTCFs; AHGFs, ASA 1500 μg/ml, with or without gentamicin 750 μg/ml, mitomycin C 0.2 mg/ml for 1, 2 or 4 minutes
  relative proportion of living to total cells: unchanged relative to vehicle control
HTCFs; Collagen Contraction Assay III conditions, ASA 1000 or 1500 μg/ml, with or without gentamicin, four days
  relative proportion of living to total cells: unchanged relative to vehicle control
αSMA; ASA 100, 400, 1600 μg/ml, 48 hrs (FIG. 16)
  AHGF-induced expression of αSMA: significantly impaired the AHGF-induced expression of αSMA
αSMA; [1]
  AHGF-induced expression of αSMA: significantly reduced
Collagen 1
  AHGF-induced expression of collagen 1: significantly reduced
pSMAD2/3
  ratio of pSMAD2/3 to tSMAD2/3 (proportion of active to total SMAD2/3): significantly reduce the proportion of active to total SMAD2/3 from AHGF-induced levels
  AHGF-induced levels of pSMAD2/3: significantly reduced
SMAD2/3
  AHGF-induced expression of SMAD2/3: significantly reduced
